Source: patent publication US9872928B2, “Diagnostic agent for therapeutic effect on cancer” (HAMAMATSU PHOTONICS K.K., priority 2013, dated 2018)

Tests used:
mitochondria Complex-1 = assay: Evaluation of binding affinity with respect to mitochondria Complex-1 (displacement of [3H]dihydrorotenone tracer from mitochondrial fraction); parameters: species or system rat (brain) and bull (heart); settings: FIG. 1
Protocol: A dose-response curve of each of a TEST substance and a positive substance was created, and a concentration (IC50 value) at which the TEST substance and the positive substance suppress 50% of bonding between a tracer and mitochondrial Complex-1 (receptor) and an absolute inhibition constant (Ki) were calculated. As the TEST substance, [^18F]BMS-747158-02 (2-tert-butyl-4-chloro-5-[4-(2-fluoro-ethoxymethyl)-benzyloxy]-2H-pyri dazin-3-one, hereinafter also referred to as “BMS”), BCPP-EF, BCPP-BF, BCPP-PF, BCPP-EM, and BMS-P were used. The details will be described below.
An animal tissue was weighed (wet weight), a homogenization buffer solution (10 mmol/L Tris-HCl buffer solution (pH, 7.40) of 250 mmol/L sucrose, 1 mmol/L succinic acid, and 0.2 mmol/L EDTA) was added in an amount twice the amount of the animal tissue, and the mixture was homogenized under ice cooling. Thereafter, the homogenized suspension solution was centrifuged (1200×g, 4° C., 20 minutes). The supernatant was collected and centrifuged (26000×g, 4° C., 15 minutes). […] The protein concentration of the mitochondrial fraction was measured using BCA Protein Assay Reagent (manufactured by Pierce Companies). […]
Measurement was performed according to the following order. Two samples were prepared for each concentration, and each sample was measured three times. […]

[1] = test system: SCCVII cells tumor tissue; assay: Judgment of effect of cancer therapy using PET measurement in cancer-bearing mice after X-ray irradiation; type: in vivo, mouse
Protocol: When the tumor volume reached about 100 mm^3, a cancer therapy using irradiation with an X-ray was performed to a tumor site of a mouse at a dose ratio of 1.2 Gy/minute using an apparatus which can perform irradiation with an X-ray having an energy of 250 keV (Hitachi Power Solutions MBR-1520R-3). As conditions of irradiation with X-ray, four conditions of non-irradiation (0 Gy, control), 6 Gy, 15 Gy, and 30 Gy were set. Also after the irradiation treatment, the tumor volume was regularly measured according to the above method.
Two days and seven days after irradiation with X-ray, a mouse with a tumor tissue (cancer-bearing mouse) was anesthetized by isoflurane gas. Thereafter, four mice were fixed at one time in a gantry of an animal PET camera (HAMAMATSU SHR-38000). For absorption correction, transmission measurement was performed using a ^68Ge-^68Ga calibration-ray source for 15 minutes. Thereafter, about 5 MBq/0.2 mL of [^18F]BCPP-EF was administered into a tail vein of a mouse, and dynamic emission measurement was performed for 60 minutes. FIG. 3 illustrates a PET image showing an effect of the radiation therapy in the tumor tissue of a mouse.
After the PET measurement was finished, each of the mice was moved to a small animal X-CT (SHIMADZ Clairvivo CT) with a fixed stand while being anesthetized, and CT measurement was performed for ten minutes. A form image (X-CT image) obtained by the CT measurement was collected, a PET accumulated image 40 to 60 minutes after administration of [^18F]BCPP-EF was superimposed on the X-CT image, and a PET image of a cancer tissue was identified.
An interest region was set on the PET image of the cancer tissue, and a value normalized with a body weight of an individual and an administration radiation dose was used as an accumulation amount of [^18F]BCPP-EF in the cancer tissue. The results are illustrated in FIG. 4.

CC(C)(C)n1ncc(OCc2ccc(OCCCCF)nc2)c(Cl)c1=O [BCPP-BF]
affinity with respect to mitochondria Complex-1 (mitochondria Complex-1; suggested from dose-response curve): high affinity | IC50 (concentration suppressing 50% of bonding between tracer and mitochondrial Complex-1), comparison in words (mitochondria Complex-1; tracer dihydrorotenone[2-isopropyl-3H(N)], 22° C., 30 minutes): lowest IC50

CC(C)(C)n1ncc(OCc2ccc(OCCOCC[18F])nc2)c(Cl)c1=O [[^18F]BCPP-EF]
accumulation in the tumor tissue (PET) as the irradiation dose was increased ([1]; X-ray 0, 6, 15, 30 Gy, FIGS. 3 and 4): increase in accumulation | accumulation in the tumor tissue (PET) ([1]; before the radiation therapy, tail vein administration): not observed | increase in accumulation in proportion to the radiation dose, duration ([1]; seven days after irradiation with radiation, FIGS. 3 and 4): continued until seven days after irradiation | accumulation in the tumor tissue (PET) ([1]; two days after irradiation with radiation, PET image 40 to 60 minutes after administration): increased
